The values that follow come from patent publication US20230146795A1, “ENHANCEMENT OF ANTI-TUMOR ACTIVITY OF SHP2 INHIBITOR PYRIMIDINONE IN COMBINATION WITH NOVEL CANCER MEDICINES IN CANCERS” (TAIHO PHARMACEUTICAL CO., LTD., priority 2020, published 2023).

Assay [1] relates to 97 cell lines harboring driver mutations in KRAS. The experiment in a line: In vitro cell line screening, 3D cultures (CellTiter-Glo 3D), KRAS panel. It is filed as cell-based, human. The following applies: sensitive = maximum inhibition greater than 50% relative to DMSO, max 3 μM Compound 1, 1 μM Compound 9, 120-hour incubation. As to the method:
(§1) The effect of Compound 1 in combination with an ERK inhibitor, Compound 9, on 97 cell lines harboring driver mutations in KRAS (G12A, G12C, G12F, G12R, G12S, G12V, G13C, G13D, A59G, Q61H, Q61K, Q61L or A146T) was assessed using the following technique. Cells from human cancer cells lines (from commercial sources such as ATCC or ECCAC) were grown as 3D cultures by seeding cells into round-bottom ultra-low attachment 96-well tissue culture plates (Corning) followed by centrifugation. Cells were allowed to recover for 16-24 hours prior to compound treatment. Compounds or dimethyl sulfoxide (DMSO) were added at various combinations of compound concentrations in a final DMSO concentration of up to 0.5% (v/v). Following a total of 120-hour incubation, CellTiter-Glo 3D Reagent(registered trademark) (Promega) was added. Plates were incubated for 10 minutes with gentle shaking at room temperature to lyse the cells, then incubated for further 40 minutes at room temperature to stabilize luminescence signal. After mixing, the mixture was transferred to a fresh plate and luminescence was determined on EnVision plate reader (Perkin Elmer).
(§2) For both 3D and 2D assays, the combination was tested as matrix of various concentrations of Compound 1 and Compound 9. The maximum concentrations of Compound 1 and Compound 9 used were 3 μM and 1 μM, respectively. Signals were normalized to that of the average of the DMSO control wells. […] For each cell line, the maximum % inhibition values were obtained for Compound 1 alone, Compound 9 alone and the combination of both compounds. The degree of drug interaction (i.e. synergy, additivity or antagonism) was quantified for each cell line by the Bliss independence model using the Synergyfinder R package (Ref: He L. et al. (2018) Methods for High-throughput Drug Combination Screening and Synergy Scoring. In: von Stechow L. (eds) Cancer Systems Biology. Methods in Molecular Biology, vol 1711. Humana Press, New York, N.Y.). For each cell line, a single score metric, the sum of synergy and antagonism across screened drug concentrations (SUM_SYN_ANT) (Ref: Di Veroli G. Y. et al (2016) Bioinformatics 32(18):2866-2868), was calculated. Synergy was defined as a score of 21 or above.
(In ATP-based viability assays light output follows the ATP content of the culture.)

The test system of another assay is 491 cell lines. The assay can be described thus: In vitro cell line screening, both panels overall. It is filed as cell-based, human. Particulars: Total panel, sensitive = maximum inhibition greater than 50% relative to DMSO, max 3 μM Compound 1, 1 μM Compound 9, 120-hour incubation. The method, then: as §1, with “Cells” for “The effect of Compound 1 in combination with an ERK inhibitor, Compound 9, on 97 cell lines harboring driver mutations in KRAS (G12A, G12C, G12F, G12R, G12S, G12V, G13C, G13D, A59G, Q61H, Q61K, Q61L or A146T) was assessed using the following technique. Cells”
Cells from human cancer cells lines (from commercial sources such as ATCC or ECCAC) were grown as 2D monolayers by seeding onto flat-bottom 96-well tissue culture plates (Corning). Cells were allowed to recover for 16-24 hours prior to compound treatment. Compounds or dimethyl sulfoxide (DMSO) were added at various combinations of compound concentrations in a final DMSO concentration of up to 0.5% (v/v). Following a total of 120-hour incubation, CellTiter-Glo reagent(registered trademark) (Promega) was added. Plates were incubated for 10 minutes with gentle shaking at room temperature to lyse the cells, then incubated for further 10 minutes at room temperature to stabilize luminescence signal. After mixing, the mixture was transferred to a fresh plate, and luminescence was determined on EnVision plate reader (Perkin Elmer).
as §2

For assay [2], the system named is human pancreatic cancer cell line MIA PaCa-2 (KRAS mutation). The assay can be described thus: Antitumor effect on MIA PaCa-2 tumor subcutaneously implanted to CB17 SCID mouse. The assay is classed as in vivo. Particulars: for T/C: once a day, Day 18. As to the method: MIA PaCa-2 cell line carries KRAS mutation.
A human pancreatic cancer line, MIA PaCa-2 (available from American Type Culture Collection), suspended in a mixture of PBS and Matrigel was subcutaneously implanted to male CB17 SCID mice at 7-10 weeks of age (Charles River UK) at 5×10^6 cells/100 μl/mouse. Tumors were measured with a pair of digital calipers, and tumor volumes (TV) were calculated by applying the formula for ellipsoid. Mice with TV of 146 to 360 mm^3 were assigned to study groups such that average TV was equal among groups.
Oral administration of Compound 1 or its vehicle, and Compound 9 or its vehicle was started on Day 1. Compound 1 was dissolved in an acidified solution of 0.5% (w/v) hydroxypropyl methylcellulose (Sigma) and administered via oral gavage at 6 or 12 mg/kg/day. Compound 9 was suspended in 20% (v/v) PEG200 (Sigma) and 0.5% (w/v) methylcellulose (Sigma) and administered via oral gavage at 50 mg/kg/day. All treatments were given once a day for 21 consecutive days, except for the combination group receiving 12 mg/kg of Compound 1 and 50 mg/kg of Compound 9, in which the animals were treated for 5 days per week for 3 weeks.
Antitumor effects were evaluated by comparing the median relative tumor volumes (RTV) between control- and treated groups. RTV was calculated by dividing TV on any test day by TV on Day 1, expressed as a percentage. T/C (%), as a measure of anti-tumor activity, was calculated by dividing median RTV values of each compound-administered group by median RTV of the control group receiving both vehicles.

The T/C is the result in the treated group divided by that in the control group, in per cent.

Consider `Cn1nc2ccc(-c3c[nH]c4nc(N5[C@H]6CC[C@@H]5[C@H](N)C6)n(C)c(=O)c34)c(Cl)c2c1Cl` [Compound 1, 2-((1R,2R,4S)-2-amino-7-azabicyclo[2.2.1]heptan-7-yl)-5-(3,4-dichloro-2-methyl-2H-indazol-5-yl)-3-methyl-3,7-dihydro-4H-pyrrolo[2,3-d]pyrimidin-4-one], for which the “Number of cell lines sensitive” value in assay [1] is reported as 38; in the assay with 491 cell lines, 175. Further, the entries for the “Number of cell lines sensitive (% of total)” value (in assay [1]; with 491 cell lines) were “(39.2) %” and “(35.6) %”, respectively. Besides, the tumor response result in assay [2] (Compound 1 alone 6 mg/kg/day) is “transient stasis”; in assay [2] (Compound 1 alone 12 mg/kg/day), “tumor stasis”. The T/C in assay [2] (Compound 1 alone 6 mg/kg/day oral) turned out to be 58%; in assay [2] (Compound 1 alone 12 mg/kg/day oral) it was 33%. Moreover, the “partial regression (tumor shrinkage of 50% or above), mice” value in assay [2] (Compound 1 alone 12 mg/kg/day) is on record as 2 out of 8.
